Experiment [1] has as its target T1, human sodium channels Nav 1.8 (Homo sapiens, UniProt Q9Y5Y9).
T1 construct: expressed in transfected cells
Put plainly: Automated whole-cell voltage-clamp (ScreenPatch 384P) sodium current block, Nav 1.8. Type of experiment: cell-based. Particulars: CHO cells stably expressing human Nav 1.8; inactivation step -40 mV 8 s, test step 10 mV (TP1A); eight concentrations; exposure at least five minutes; room temperature; read-out: Nav1.8 IC50. As for the experimental part: (§1) Biological assays were performed on Chinese hamster ovary (CHO) cells that express human sodium channels Nav 1.8 or Nav 1.7 in a stable manner.
(§2) The experimental protocol voltage-clamp using the whole cell configuration was established on the automated ScreenPatch® 384P platform (SP384PE, Nanion Technologies, Livingston, NJ) and the results were recorded with a Nanion 384-well Patch Clamp chip (NPC) (Nanion Technologies, Livingston, NJ).
(§3) Formula I compounds were diluted in eight concentrations in the extracellular solution composed of saline solution, buffered with HEPES (mM): NaCl, 137; KCl, 4; CaCl2, 3,8; MgCl2, 1; HEPES, 10; Glucose, 10; pH 7.4. The […], 50; CsF, 90; MgCl2, 5; EGTA, 5; HEPES, 10; pH 7.2. The duration of exposure of each compound with cells expressing Nav 1.7 or Nav 1.8 was at least five minutes and the assays were performed at room temperature.
(§4) The measurements of the sodium currents of Nav 1.8 and Nav 1.7 were obtained using the voltage protocol described below.
(§5) A holding voltage of -100 mV was established followed by an inactivation voltage step at -40 mV for 8 seconds, followed by a step of -100 mV for 20 ms, followed by a 20 ms step for 10 mV for Nav 1.8 or 0 mV for Nav 1.7 (TP1A) before returning to the holding voltage of -100 mV.
(§6) The protocol was repeated at a frequency of 0.05 Hz and the amplitude of the current was quantified throughout the recording of the TP1A phase. The variation in the amplitude of the peak current was evaluated according to the formula described below, after exposing the cells expressing the channels to each concentration of the different compounds: % Block = (1−(ITP1A,molecule/ITP1A,basal)×100%, [formula] wherein ITP1A,basal and ITP1A,molecule represent the peaks of sodium current input into TP1A before exposure to the compound and in the presence of the compound, respectively.
(§7) Data were obtained by nonlinear regression (nonlinear least squares) with XLfit for Excel (Microsoft, Redmond, WA).
(§8) The compounds were tested in at least one assay to obtain the value of CI50. For compounds that were tested in two or more assays, the results are described as the means of the CI50 values.

For experiment [2], the target named is T2, human sodium channels Nav 1.7 (Homo sapiens, UniProt Q15858).
T2 construct: expressed in transfected cells
T2 sequence (Q15858 whole entry): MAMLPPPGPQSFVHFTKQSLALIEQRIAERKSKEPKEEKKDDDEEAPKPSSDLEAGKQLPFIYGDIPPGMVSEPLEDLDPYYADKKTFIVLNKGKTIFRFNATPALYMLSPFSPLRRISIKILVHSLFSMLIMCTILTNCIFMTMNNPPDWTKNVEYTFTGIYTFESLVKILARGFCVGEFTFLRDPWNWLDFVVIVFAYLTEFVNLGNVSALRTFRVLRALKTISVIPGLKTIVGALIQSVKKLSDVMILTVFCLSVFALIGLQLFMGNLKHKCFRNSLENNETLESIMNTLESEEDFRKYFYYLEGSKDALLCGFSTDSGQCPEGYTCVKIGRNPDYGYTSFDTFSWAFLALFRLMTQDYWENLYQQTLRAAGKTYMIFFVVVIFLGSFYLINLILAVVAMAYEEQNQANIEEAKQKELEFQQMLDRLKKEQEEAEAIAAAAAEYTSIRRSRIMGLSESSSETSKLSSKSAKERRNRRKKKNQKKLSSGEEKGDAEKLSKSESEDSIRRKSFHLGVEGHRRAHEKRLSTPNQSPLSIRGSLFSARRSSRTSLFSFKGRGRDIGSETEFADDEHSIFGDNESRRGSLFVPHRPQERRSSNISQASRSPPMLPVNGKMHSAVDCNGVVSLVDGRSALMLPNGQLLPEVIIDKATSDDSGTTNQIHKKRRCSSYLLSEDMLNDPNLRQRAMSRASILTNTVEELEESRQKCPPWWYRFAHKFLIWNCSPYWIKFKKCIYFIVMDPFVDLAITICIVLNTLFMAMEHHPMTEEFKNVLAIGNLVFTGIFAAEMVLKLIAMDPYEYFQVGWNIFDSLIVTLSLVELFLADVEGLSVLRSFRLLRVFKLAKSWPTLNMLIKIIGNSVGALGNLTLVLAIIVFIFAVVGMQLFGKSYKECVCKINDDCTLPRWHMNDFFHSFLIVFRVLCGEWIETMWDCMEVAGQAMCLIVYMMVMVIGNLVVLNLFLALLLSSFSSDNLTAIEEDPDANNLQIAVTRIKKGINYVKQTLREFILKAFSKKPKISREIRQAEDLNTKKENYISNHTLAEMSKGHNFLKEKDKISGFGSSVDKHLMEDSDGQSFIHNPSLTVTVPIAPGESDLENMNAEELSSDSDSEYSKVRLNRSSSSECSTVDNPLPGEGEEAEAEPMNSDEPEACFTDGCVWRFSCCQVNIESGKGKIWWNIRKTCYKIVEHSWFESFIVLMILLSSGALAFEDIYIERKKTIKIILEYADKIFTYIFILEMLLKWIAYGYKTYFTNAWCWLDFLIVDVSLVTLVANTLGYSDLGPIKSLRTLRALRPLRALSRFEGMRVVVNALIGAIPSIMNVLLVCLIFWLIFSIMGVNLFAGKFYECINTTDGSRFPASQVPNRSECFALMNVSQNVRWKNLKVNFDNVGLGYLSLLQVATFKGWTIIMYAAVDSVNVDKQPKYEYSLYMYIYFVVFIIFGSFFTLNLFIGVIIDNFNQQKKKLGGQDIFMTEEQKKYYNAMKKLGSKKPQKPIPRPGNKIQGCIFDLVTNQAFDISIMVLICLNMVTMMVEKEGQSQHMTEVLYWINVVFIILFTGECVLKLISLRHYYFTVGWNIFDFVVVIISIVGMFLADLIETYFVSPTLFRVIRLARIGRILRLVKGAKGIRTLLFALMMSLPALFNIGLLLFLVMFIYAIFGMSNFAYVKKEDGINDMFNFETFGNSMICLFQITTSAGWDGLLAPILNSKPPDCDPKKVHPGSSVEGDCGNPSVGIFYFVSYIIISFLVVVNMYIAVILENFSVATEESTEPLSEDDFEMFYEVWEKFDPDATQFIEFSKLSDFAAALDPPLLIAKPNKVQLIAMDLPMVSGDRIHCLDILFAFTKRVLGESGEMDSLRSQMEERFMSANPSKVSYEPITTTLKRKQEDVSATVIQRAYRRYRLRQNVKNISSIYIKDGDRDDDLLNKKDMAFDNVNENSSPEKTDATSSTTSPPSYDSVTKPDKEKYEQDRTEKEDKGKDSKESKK
Put plainly: Automated whole-cell voltage-clamp (ScreenPatch 384P) sodium current block, Nav 1.7. The class given is cell-based. The conditions noted are these: CHO cells stably expressing human Nav 1.7; inactivation step -40 mV 8 s, test step 0 mV (TP1A); eight concentrations; exposure at least five minutes; room temperature; read-out: Nav1.7 IC50. As for the experimental part:
as §1, §2, §3, §4, §5, §6, §7, §8

Molecules are shown by their SMILES.

T1 sequence (Q9Y5Y9 whole entry): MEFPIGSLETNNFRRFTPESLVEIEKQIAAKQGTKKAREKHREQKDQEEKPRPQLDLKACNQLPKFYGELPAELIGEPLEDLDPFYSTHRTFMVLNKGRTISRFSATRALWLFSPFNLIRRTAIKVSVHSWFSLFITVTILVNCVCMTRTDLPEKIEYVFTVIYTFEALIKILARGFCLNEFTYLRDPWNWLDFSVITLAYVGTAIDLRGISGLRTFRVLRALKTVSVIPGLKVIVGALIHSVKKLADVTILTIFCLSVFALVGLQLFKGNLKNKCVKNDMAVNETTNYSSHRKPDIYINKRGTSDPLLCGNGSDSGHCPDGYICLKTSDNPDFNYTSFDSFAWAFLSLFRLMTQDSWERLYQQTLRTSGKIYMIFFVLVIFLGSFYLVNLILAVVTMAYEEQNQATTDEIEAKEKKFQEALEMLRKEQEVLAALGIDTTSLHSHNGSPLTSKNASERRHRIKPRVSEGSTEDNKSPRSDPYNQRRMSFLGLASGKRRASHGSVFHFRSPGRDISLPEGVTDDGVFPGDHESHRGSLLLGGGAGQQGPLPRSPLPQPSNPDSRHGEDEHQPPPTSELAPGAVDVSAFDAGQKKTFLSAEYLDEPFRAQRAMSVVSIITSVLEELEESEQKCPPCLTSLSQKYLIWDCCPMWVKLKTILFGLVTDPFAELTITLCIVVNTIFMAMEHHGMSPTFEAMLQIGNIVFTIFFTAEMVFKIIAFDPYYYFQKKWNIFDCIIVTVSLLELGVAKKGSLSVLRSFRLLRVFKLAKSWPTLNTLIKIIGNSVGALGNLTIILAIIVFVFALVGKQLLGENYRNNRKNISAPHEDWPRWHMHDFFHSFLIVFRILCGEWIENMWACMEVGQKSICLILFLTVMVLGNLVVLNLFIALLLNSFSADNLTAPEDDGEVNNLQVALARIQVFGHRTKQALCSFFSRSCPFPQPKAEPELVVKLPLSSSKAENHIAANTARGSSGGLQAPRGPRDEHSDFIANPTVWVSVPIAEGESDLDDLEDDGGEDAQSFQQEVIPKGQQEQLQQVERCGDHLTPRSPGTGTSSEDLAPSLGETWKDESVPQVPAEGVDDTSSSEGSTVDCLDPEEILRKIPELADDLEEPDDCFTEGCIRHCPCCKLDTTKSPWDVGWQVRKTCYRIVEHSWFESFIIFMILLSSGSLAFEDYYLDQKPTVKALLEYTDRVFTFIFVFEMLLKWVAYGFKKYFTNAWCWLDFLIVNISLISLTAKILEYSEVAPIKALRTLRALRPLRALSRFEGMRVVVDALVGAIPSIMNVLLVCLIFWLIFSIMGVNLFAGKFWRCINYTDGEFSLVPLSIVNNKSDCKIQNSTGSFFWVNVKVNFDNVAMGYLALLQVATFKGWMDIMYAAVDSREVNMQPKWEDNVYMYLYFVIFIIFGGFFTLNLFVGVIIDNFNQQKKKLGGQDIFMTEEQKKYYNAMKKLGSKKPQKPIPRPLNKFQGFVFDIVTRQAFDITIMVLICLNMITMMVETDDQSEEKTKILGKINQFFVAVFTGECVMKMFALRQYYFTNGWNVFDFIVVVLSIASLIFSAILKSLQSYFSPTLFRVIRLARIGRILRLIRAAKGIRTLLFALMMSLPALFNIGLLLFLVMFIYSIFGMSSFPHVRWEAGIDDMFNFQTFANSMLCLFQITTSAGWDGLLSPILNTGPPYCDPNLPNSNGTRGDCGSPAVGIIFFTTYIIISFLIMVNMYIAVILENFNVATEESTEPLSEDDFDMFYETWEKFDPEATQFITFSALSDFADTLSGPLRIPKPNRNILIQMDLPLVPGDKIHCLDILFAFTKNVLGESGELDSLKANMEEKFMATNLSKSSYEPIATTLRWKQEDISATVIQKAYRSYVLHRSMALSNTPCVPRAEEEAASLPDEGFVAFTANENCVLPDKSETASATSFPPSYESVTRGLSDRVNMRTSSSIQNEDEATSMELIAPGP

With `[2H]C([2H])([2H])COc1ccc(-c2cncc(C(=O)N/N=C/c3cc(OC([2H])([2H])[2H])cnc3F)n2)cn1` [Compound 173, (E)-6-(6-(ethoxy-2,2,2-d3)pyridine-3-yl)-N'-((2-fluoro-5-(methoxy-d3)pyridine-3-yl)methylene)pyrazine-2-carbohydrazide], the concentration for half-maximal inhibition (IC50) is under 0.5 µM in experiment [1] and over 1 µM in experiment [2].

For the compound `CCOc1ccc(F)c(/C=N/NC(=O)c2cncc(-c3ccc(OCC)nc3)n2)c1` [Compound 4, (E)-N'-(5-ethoxy-2-fluorobenzylidene)-6-(6-ethoxypyridine-3-yl)pyrazine-2-carbohydrazide], the IC50 in experiment [1] was under 0.5 µM; in experiment [2] it was over 1 µM.

For `CC(C)Oc1ccc(F)c(/C=N/NC(=O)c2cncc(-c3ccc(OC4CC4)nc3)n2)c1` [Compound 79, (E)-6-(6-cyclopropoxypyridine-3-yl)-N'-(2-fluoro-5-isopropoxybenzylidene) pyrazine-2-carbohydrazide], the IC50 in experiment [1] and in experiment [2] was under 0.5 µM throughout.

In the case of `CCOc1cc(OC)c(-c2cncc(C(=O)N/N=C/c3cc(OC)cnc3F)n2)cn1` [Compound 153, (E)-6-(6-ethoxy-4-methoxypyridine-3-yl)-N'-((2-fluoro-5-methoxypyridine-3-yl)methylene)pyrazine-2-carbohydrazide], the IC50 in experiment [1] and in experiment [2] was over 1 µM throughout.

For `O=C(N/N=C/c1cc(OC2CC2)ccc1F)c1cncc(-c2ccc(OC(F)(F)F)nc2)n1` [Compound 94, (E)-N'-(5-cyclopropoxy-2-fluorobenzylidene)-6-(6-(trifluoromethoxy)pyridine-3-yl)pyrazine-2-carbohydrazide], the half-maximal inhibitory concentration (IC50) in experiment [1] and in experiment [2] was under 0.5 µM each time.

Take `CCOc1ccc(-c2cncc(C(=O)N/N=C/c3cncn3C(C)C)n2)cn1` [Compound 53, (E)-6-(6-ethoxypyridine-3-yl)-N'-((1-isopropyl-1H-imidazole-5-yl)methylene)pyrazine-2-carbohydrazide]: the half-maximal inhibitory concentration (IC50) in experiment [1] and in experiment [2] was over 1 µM each time.

Take `[2H]C([2H])(C)Oc1ccc(-c2cncc(C(=O)N/N=C/c3cc(OC)cnc3F)n2)cn1` [Compound 169, (E)-6-(6-(ethoxy-1,1-d2)pyridine-3-yl)-N'-((2-fluoro-5-methoxypyridine-3-yl)methylene)pyrazine-2-carbohydrazide]: the IC50 is under 0.5 µM in experiment [1] and over 1 µM in experiment [2].

Turning to `CCOc1ccc(-c2cncc(C(=O)N/N=C/c3c[nH]nc3C)n2)cn1` [Compound 57, (E)-6-(6-ethoxypyridine-3-yl)-N'-((3-methyl-1H-pyrazole-4-yl)methylene)pyrazine-2-carbohydrazide], the IC50 in experiment [1] and in experiment [2] was over 1 µM in each case.

`COc1ccc(F)c(/C=N/NC(=O)c2cnc(O)c(-c3ccc(OC(F)(F)F)nc3)n2)c1` [Compound 98, (E)-N'-(2-fluoro-5-methoxybenzylidene)-5-hydroxy-6-(6-(trifluoromethoxy)pyridine-3-yl)pyrazine-2-carbohydrazide]: the IC50 in experiment [1] and in experiment [2] was over 1 µM in each case.

As to `CCOc1ccc(-c2cncc(C(=O)N/N=C/c3cc(O)cnc3F)n2)cn1` [Compound 28, (E)-6-(6-ethoxypyridine-3-yl)-N'-((2-fluoro-5-hydroxypyridine-3-yl)methylene)pyrazine-2-carbohydrazide], the IC50 was 0.5 to 1 µM in experiment [1] and over 1 µM in experiment [2].

On to `CCOc1ccc(-c2cncc(C(=O)N/N=C/c3cc(OC4CNC4)cnc3F)n2)cn1` [Compound 34, (E)-N'-((5-(azetidin-3-yloxy)-2-fluoropyridine-3-yl)methylene)-6-(6-ethoxypyridine-3-yl) pyrazine-2-carbohydrazide], for which the half-maximal inhibitory concentration (IC50) in experiment [1] and in experiment [2] was over 1 µM each time.

In the case of `COc1ccc(F)c(/C=N/NC(=O)c2cncc(-c3ccc(OCC4CN(C)C4)nc3)n2)c1` [Compound 146, (E)-N'-(2-fluoro-5-methoxybenzylidene)-6-(6-((1-methylazetidine-3-yl)methoxy)pyridine-3-yl)pyrazine-2-carbohydrazide], the 50% inhibitory concentration (IC50) in experiment [1] and in experiment [2] was over 1 µM throughout.

Regarding `O=C(N/N=C/c1ccncc1)c1cncc(-c2ccc(OC(F)(F)F)nc2)n1` [Compound 87, (E)-N'-(pyridine-4-ylmethylene)-6-(6-(trifluoromethoxy)pyridine-3-yl)pyrazine-2-carbohydrazide], the half-maximal inhibitory concentration (IC50) in experiment [1] and in experiment [2] was over 1 µM in each case.

Take `O=C(N/N=C/c1ccccc1F)c1cncc(-c2ccc(OC(F)(F)F)nc2)n1` [Compound 89, (E)-N'-(2-fluorobenzylidene)-6-(6-(trifluoromethoxy)pyridine-3-yl)pyrazine-2-carbohydrazide]: the half-inhibitory concentration (IC50) in experiment [1] was under 0.5 µM; in experiment [2], over 1 µM.

With `CCOc1ccc(-c2cncc(C(=O)N/N=C/c3cc(OC)cnc3F)c2)cn1` [Compound 74, (E)-6'-ethoxy-N'-((2-fluoro-5-methoxypyridine-3-yl)methylene)-[3,3'-bipyridine]-5-carbohydrazide], the IC50 in experiment [1] and in experiment [2] was over 1 µM in each case.

Consider `CCOc1ccc(-c2cncc(C(=O)N/N=C/c3ccnn3C)n2)cn1` [Compound 51, (E)-6-(6-ethoxypyridine-3-yl)-N'-((1-methyl-1H-pyrazole-5-yl)methylene)pyrazine-2-carbohydrazide], for which the IC50 in experiment [1] and in experiment [2] was over 1 µM each time.

`COc1ccc(F)c(/C=N/NC(=O)c2cncc(-c3ccc(OCC(C)N)nc3)n2)c1` (stereo not drawn) [Compound 136, (E)-6-(6-(2-aminopropoxy)pyridine-3-yl)-N'-(2-fluoro-5-methoxybenzylidene) pyrazine-2-carbohydrazide]: the IC50 in experiment [1] and in experiment [2] was over 1 µM each time.

`[2H]C([2H])([2H])Oc1cnc(F)c(/C=N/NC(=O)c2cncc(-c3ccc(OC([2H])([2H])C)nc3)n2)c1` [Compound 172, (E)-6-(6-(ethoxy-1,1-d2)pyridine-3-yl)-N'-((2-fluoro-5-(methoxy-d3)pyridine-3-yl)methylene)pyrazine-2-carbohydrazide]: the half-inhibitory concentration (IC50) in experiment [1] was under 0.5 µM; in experiment [2] it was over 1 µM.

With `[2H]C([2H])([2H])C([2H])([2H])Oc1ccc(-c2cncc(C(=O)N/N=C/c3cc(OC)cnc3F)n2)cn1` [Compound 170, (E)-6-(6-(ethoxy-d5)pyridine-3-yl)-N'-((2-fluoro-5-methoxypyridine-3-yl)methylene) pyrazine-2-carbohydrazide], the results for the IC50 in experiment [1] and in experiment [2] were under 0.5 µM and over 1 µM, respectively.

For `CCOc1ccc(-c2cncc(C(=O)N/N=C/c3cc(C(C)O)cnc3F)n2)cn1` (stereo not drawn) [Compound 25, (E)-6-(6-ethoxypyridine-3-yl)-N'-((2-fluoro-5-(1-hydroxyethyl)pyridine-3-yl)methylene) pyrazine-2-carbohydrazide], the concentration for half-maximal inhibition (IC50) in experiment [1] is 0.5 to 1 µM; in experiment [2], over 1 µM.

Turning to `O=C(N/N=C/c1cc(O)cnc1F)c1cncc(-c2ccc(OC(F)F)nc2)n1` [Compound 113, (E)-6-(6-(difluoromethoxy)pyridine-3-yl)-N'-((2-fluoro-5-hydroxypyridine-3-yl)methylene)pyrazine-2-carbohydrazide], the IC50 in experiment [1] was 0.5 to 1 µM; in experiment [2] it was over 1 µM.

With `COc1cnc(F)c(/C=N/NC(=O)c2cncc(-c3ccc(OC(F)(F)F)nc3)n2)c1` [Compound 95, (E)-N'-((2-fluoro-5-methoxypyridine-3-yl)methylene)-6-(6-(trifluoromethoxy)pyridine-3-yl)pyrazine-2-carbohydrazide], the 50% inhibitory concentration (IC50) was under 0.5 µM in experiment [1] and over 1 µM in experiment [2].

Consider `COc1cnc(F)c(/C=N/NC(=O)c2cncc(-c3ccc(OC4CNC4)nc3)n2)c1` [Compound 142, (E)-6-(6-(azetidin-3-yloxy)pyridine-3-yl)-N'-((2-fluoro-5-methoxypyridine-3-yl)methylene)pyrazine-2-carbohydrazide], for which the concentration for half-maximal inhibition (IC50) in experiment [1] and in experiment [2] was over 1 µM each time.

In the case of `CCOc1ccc(F)c(/C=N/NC(=O)c2cncc(-c3ccc(OC(F)(F)F)nc3)n2)c1` [Compound 91, (E)-N'-(5-ethoxy-2-fluorobenzylidene)-6-(6-(trifluoromethoxy)pyridine-3-yl)pyrazine-2-carbohydrazide], the IC50 in experiment [1] is under 0.5 µM; in experiment [2] it was over 1 µM.

For orientation: IC50 means the point on the concentration scale where inhibition reaches its midpoint.
